The supplement of paper PMC11208160

Experiment: recombinant barcode read abundance after kanamycin selection (control-corrected) (log10(CPM+1)); higher = more efficient recombination; sequences stand for … in AGTGCAGAGAAAATCGGCCAGTTTTCTCTGCCTGCAGTCCGCATGCCGT…AGATTTATGCAGCGGACTGCCTTTCTCCCAAAGTGATAAACCGGACAGTATCATGGACCGGTTTTCCCGGTAATCCGTATTTGCAAGGTTGGTTTCACT; site = the 11-nt target
Procedure: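 Pooled E. coli target-specificity screen for the IS621 bridge recombinase. Each library plasmid pairs an 11-nt target (CT core) with a bridge RNA whose target-binding loop (9-nt LTG + 4-nt RTG) is reprogrammed; the rest of the 177-nt WT IS621 bridge RNA scaffold is fixed. The plasmid is co-electroporated with a WT donor plasmid; recombinase is induced with 0.1 mM IPTG and recombinants are selected on kanamycin. Recombinant barcodes are sequenced, converted to CPM, averaged over two biological replicates and corrected by the unselected control CPM. Molecule = full bridge RNA written as DNA: LTG = specificity nt 1-9, RTG = reverse complement of specificity nt 8-11, in the WT scaffold.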
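Further: IS621 recombinase and bridge RNA in Escherichia coli cells.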

“ACGCGAGCTTGGGTTCTAACCTGTTGCAG (site ACGCGAGCTCA)” and “ACGCGAGCTTGGGTTCTAACCTGTTGCAG (site ACGCGAGCTCC)” are within 0.2 log units of each other in “recombinant barcode read abundance (log10)” value: 0.188 for the first, 0.318 for the second.

“ACGCGAGCTTGGGTTCTAACCTGTTGCAG (site ACGCGAGCTCG)” and “ACGCGAGCTTGGGTTCTAACCTGTTGCAG (site ACGCGAGCTCT)” are within 0.2 log units of each other in “recombinant barcode read abundance (log10)” value: 0.192 for the first, 0.142 for the second.

Compared with “ACGCGAGCTTGGGTTCTAACCTGTTGCGG (site ACGCGAGCTCA)”, “ACGCGAGCTTGGGTTCTAACCTGTTGCGG (site ACGCGAGCTCC)” is higher in “recombinant barcode read abundance (log10)” value: 0.066 for the first, 0.954 for the second.

“ACGCGAGCTTGGGTTCTAACCTGTTGCGG (site ACGCGAGCTCG)” and “ACGCGAGCTTGGGTTCTAACCTGTTGCGG (site ACGCGAGCTCT)” are within 0.2 log units of each other in “recombinant barcode read abundance (log10)” value: 0.316 for the first, 0.423 for the second.

Going from “ACGCGGACTTGGGTTCTAACCTGTTGCCT (site ACGCCGACTAG)” to “ACGCGGACTTGGGTTCTAACCTGTTGCCT (site ACGCGGACTAG)”, the “recombinant barcode read abundance (log10)” value rises from 0 to 1.21.

Compared with “ACGCGTTCTTGGGTTCTAACCTGTTGCAT (site ACGCGTTCTAT)”, “ACGCGTTCTTGGGTTCTAACCTGTTGCAT (site CTAGACCCTCC)” is higher in “recombinant barcode read abundance (log10)” value: 0.0272 for the first, 0.271 for the second.

Compared with “ACGGATCCTTGGGTTCTAACCTGTTGCAT (site ACGGATCCTAT)”, “ACGGATCCTTGGGTTCTAACCTGTTGCAT (site GTCCTATCTTG)” is lower in “recombinant barcode read abundance (log10)” value: 2.51 for the first, 0.0315 for the second.

Compared with “ACGGCCTCTTGGGTTCTAACCTGTTGCTT (site ACGGCATCTAG)”, “ACGGCCTCTTGGGTTCTAACCTGTTGCTT (site ACGGCCTCTAA)” is higher in “recombinant barcode read abundance (log10)” value: 0.276 for the first, 2.63 for the second.

Going from “ACGGCGCCTTGGGTTCTAACCTGTTGCCT (site AAGGCGCCTAG)” to “ACGGCGCCTTGGGTTCTAACCTGTTGCCT (site ACGGCGCCTAG)”, the “recombinant barcode read abundance (log10)” value rises from 0.0538 to 1.12.

“ACGGCGCCTTGGGTTCTAACCTGTTGCCT (site AGGGCGCCTAG)” and “ACGGCGCCTTGGGTTCTAACCTGTTGCCT (site ATGGCGCCTAG)” are within 0.2 log units of each other in “recombinant barcode read abundance (log10)” value: 0.101 for the first, 0.182 for the second.

Going from “ACGGGCTCTTGGGTTCTAACCTGTTGCTC (site ACGGGCTCTGA)” to “ACGGGCTCTTGGGTTCTAACCTGTTGCTC (site CGACTTACTAT)”, the “recombinant barcode read abundance (log10)” value falls from 1.53 to 0.164.

Going from “ACGGGGTCTTGGGTTCTAACCTGTTGCCT (site ACGGGGTCTAG)” to “ACGGGGTCTTGGGTTCTAACCTGTTGCCT (site CCGGGGTCTAG)”, the “recombinant barcode read abundance (log10)” value falls from 2.64 to 0.637.

First: ACGGGGTCTTGGGTTCTAACCTGTTGCCT (site GCGGGGTCTAG)
Second: ACGGGGTCTTGGGTTCTAACCTGTTGCCT (site TCGGGGTCTAG)
The “recombinant barcode read abundance (log10)” value of the first is lower: 0.123 for the first, 0.416 for the second.

Compared with “ACGGGTACTTGGGTTCTAACCTGTTGCCT (site ACGGGTACTAG)”, “ACGGGTACTTGGGTTCTAACCTGTTGCCT (site ACTGGTACTAG)” is lower in “recombinant barcode read abundance (log10)” value: 1.51 for the first, 0.165 for the second.

“ACGTAACCTTGGGTTCTAACCTGTTGCCT (site ACGTAACCTAG)” and “ACGTAACCTTGGGTTCTAACCTGTTGCCT (site GTAACTACTGA)” are within 0.2 log units of each other in “recombinant barcode read abundance (log10)” value: 0.0547 for the first, 0.083 for the second.

Compared with “ACGTATGCTTGGGTTCTAACCTGTTGCAT (site ACGTATGCTAT)”, “ACGTATGCTTGGGTTCTAACCTGTTGCAT (site TAAATCACTCG)” is lower in “recombinant barcode read abundance (log10)” value: 0.556 for the first, 0.0674 for the second.

“ACGTCTCCTTGGGTTCTAACCTGTTGCTG (site ACGACTCCTCA)” and “ACGTCTCCTTGGGTTCTAACCTGTTGCTG (site ACGCCTCCTCA)” are within 0.2 log units of each other in “recombinant barcode read abundance (log10)” value: 0 for the first, 0.175 for the second.

“ACGTCTCCTTGGGTTCTAACCTGTTGCTG (site ACGGCTCCTCA)” and “ACGTCTCCTTGGGTTCTAACCTGTTGCTG (site ACGTCTCCTCA)” are within 0.2 log units of each other in “recombinant barcode read abundance (log10)” value: 0.0879 for the first, 0.162 for the second.

Compared with “ACGTGCTCTTGGGTTCTAACCTGTTGCCT (site AAGTGCTCTAG)”, “ACGTGCTCTTGGGTTCTAACCTGTTGCCT (site ACGTGCTCTAG)” is higher in “recombinant barcode read abundance (log10)” value: 0.503 for the first, 1.32 for the second.

“ACGTGCTCTTGGGTTCTAACCTGTTGCCT (site AGGTGCTCTAG)” and “ACGTGCTCTTGGGTTCTAACCTGTTGCCT (site ATGTGCTCTAG)” are within 0.2 log units of each other in “recombinant barcode read abundance (log10)” value: 0.119 for the first, 0.246 for the second.

First: ACGTGGCCTTGGGTTCTAACCTGTTGCCA (site ACGTGGCCTTG)
Second: ACGTGGCCTTGGGTTCTAACCTGTTGCCA (site ACGTGGTCTTA)
The “recombinant barcode read abundance (log10)” value of the first is lower: 0.0442 for the first, 0.275 for the second.

Compared with “ACGTGGCCTTGGGTTCTAACCTGTTGCTG (site ACGTGGCCTCA)”, “ACGTGGCCTTGGGTTCTAACCTGTTGCTG (site ACTTGGCCTCA)” is lower in “recombinant barcode read abundance (log10)” value: 1.05 for the first, 0.618 for the second.

“ACGTGGTCTTGGGTTCTAACCTGTTGCTA (site ACGTGGCCTTG)” and “ACGTGGTCTTGGGTTCTAACCTGTTGCTA (site ACGTGGTCTTA)” are within 0.2 log units of each other in “recombinant barcode read abundance (log10)” value: 0.534 for the first, 0.582 for the second.

Going from “ACTAACACTTGGGTTCTAACCTGTTGCCT (site ACTAACACTAG)” to “ACTAACACTTGGGTTCTAACCTGTTGCCT (site CCTAACACTAG)”, the “recombinant barcode read abundance (log10)” value falls from 1.23 to 0.0857.

Compared with “ACTAACACTTGGGTTCTAACCTGTTGCCT (site GCTAACACTAG)”, “ACTAACACTTGGGTTCTAACCTGTTGCCT (site TCTAACACTAG)” is higher in “recombinant barcode read abundance (log10)” value: 0.0913 for the first, 0.546 for the second.

Compared with “ACTAACCCTTGGGTTCTAACCTGTTGCCT (site AATAACCCTAG)”, “ACTAACCCTTGGGTTCTAACCTGTTGCCT (site ACTAACCCTAG)” is higher in “recombinant barcode read abundance (log10)” value: 0.0415 for the first, 1.47 for the second.

“ACTAACCCTTGGGTTCTAACCTGTTGCCT (site AGTAACCCTAG)” and “ACTAACCCTTGGGTTCTAACCTGTTGCCT (site ATTAACCCTAG)” are within 0.2 log units of each other in “recombinant barcode read abundance (log10)” value: 0.08 for the first, 0.074 for the second.

Compared with “ACTAAGCCTTGGGTTCTAACCTGTTGCGG (site ACTAAGCCTCC)”, “ACTAAGCCTTGGGTTCTAACCTGTTGCGG (site AGTAAGCCTCT)” is lower in “recombinant barcode read abundance (log10)” value: 1.93 for the first, 0.151 for the second.

First: ACTACCTCTTGGGTTCTAACCTGTTGCCT (site AATACCTCTAG)
Second: ACTACCTCTTGGGTTCTAACCTGTTGCCT (site ACTACCTCTAG)
The “recombinant barcode read abundance (log10)” value of the first is lower: 0.0169 for the first, 1.35 for the second.

“ACTACCTCTTGGGTTCTAACCTGTTGCCT (site AGTACCTCTAG)” and “ACTACCTCTTGGGTTCTAACCTGTTGCCT (site ATTACCTCTAG)” are within 0.2 log units of each other in “recombinant barcode read abundance (log10)” value: 0.0737 for the first, 0.0805 for the second.

“ACTACTACTTGGGTTCTAACCTGTTGCCT (site AATACTACTAG)” and “ACTACTACTTGGGTTCTAACCTGTTGCCT (site ACTACTACTAG)” are within 0.2 log units of each other in “recombinant barcode read abundance (log10)” value: 0.227 for the first, 0.172 for the second.

Going from “ACTACTACTTGGGTTCTAACCTGTTGCCT (site AGTACTACTAG)” to “ACTACTACTTGGGTTCTAACCTGTTGCCT (site ATTACTACTAG)”, the “recombinant barcode read abundance (log10)” value falls from 0.492 to 0.111.

Going from “ACTAGACCTTGGGTTCTAACCTGTTGCCT (site ACTAGACCTAG)” to “ACTAGACCTTGGGTTCTAACCTGTTGCCT (site ACTCGACCTAG)”, the “recombinant barcode read abundance (log10)” value falls from 0.5 to 0.134.

Going from “ACTAGGACTTGGGTTCTAACCTGTTGCGT (site ACTAGGACTAC)” to “ACTAGGACTTGGGTTCTAACCTGTTGCGT (site ACTAGGACTCC)”, the “recombinant barcode read abundance (log10)” value falls from 2.91 to 1.22.

“ACTAGGACTTGGGTTCTAACCTGTTGCGT (site ACTAGGACTGC)” and “ACTAGGACTTGGGTTCTAACCTGTTGCGT (site ACTAGGACTTC)” are within 0.2 log units of each other in “recombinant barcode read abundance (log10)” value: 0.248 for the first, 0.26 for the second.

Going from “ACTAGGCCTTGGGTTCTAACCTGTTGCGG (site ACTAGGCCTCC)” to “ACTAGGCCTTGGGTTCTAACCTGTTGCGG (site ACTATCCCTCC)”, the “recombinant barcode read abundance (log10)” value falls from 2.2 to 0.0234.

Going from “ACTAGGGCTTGGGTTCTAACCTGTTGCGG (site AATAGGGCTCC)” to “ACTAGGGCTTGGGTTCTAACCTGTTGCGG (site ACTAGGGCTCC)”, the “recombinant barcode read abundance (log10)” value rises from 0.729 to 3.25.

First: ACTAGTCCTTGGGTTCTAACCTGTTGCCA (site ACTACTCCTTC)
Second: ACTAGTCCTTGGGTTCTAACCTGTTGCCA (site ACTAGTCCTTG)
The “recombinant barcode read abundance (log10)” value of the first is lower: 0.0602 for the first, 0.326 for the second.

“ACTAGTCCTTGGGTTCTAACCTGTTGCTT (site ACTAGTCCTAA)” and “ACTAGTCCTTGGGTTCTAACCTGTTGCTT (site ACTAGTCCTAC)” are within 0.2 log units of each other in “recombinant barcode read abundance (log10)” value: 0.294 for the first, 0.143 for the second.

“ACTAGTCCTTGGGTTCTAACCTGTTGCTT (site ACTAGTCCTAG)” and “ACTAGTCCTTGGGTTCTAACCTGTTGCTT (site ACTAGTCCTAT)” are within 0.2 log units of each other in “recombinant barcode read abundance (log10)” value: 0.189 for the first, 0.316 for the second.

Going from “ACTATCCCTTGGGTTCTAACCTGTTGCGG (site ACTAGGCCTCC)” to “ACTATCCCTTGGGTTCTAACCTGTTGCGG (site ACTATCCCTCC)”, the “recombinant barcode read abundance (log10)” value rises from 0.283 to 1.16.
